Values quoted from earlier work, collected in patent publication US6780436B1, “Solid oral pharmaceutical formulation of modified release that contains an acid labile benzimidazole compound” (Laboratorios Del Dr. Esteve, SA, priority 1999, dated 2004).

Details: hard gelatin capsules that contain omeprazole pellets with enteric coating; stated 'in general' in the background

In the case of `COc1ccc2[nH]c([S+]([O-])Cc3ncc(C)c(OC)c3C)nc2c1` (stereo not shown) [omeprazole, 5-methoxy-2[[(4-methoxy-3,5-dimethyl-2-pyridinyl)methyl]sulphinyl]-1H-benzimidazole], the “time of peak plasma concentration after administration” value is listed as 2 h.
